In ChEMBL document CHEMBL2417444, “Synthesis and study of 1-ethyl-3-carbohydrazide and 3-[1-oxo-2-hydrazino-3-{p-toluenesulfon}]quinolone derivatives against bacterial infections” (2013) one finds MIC and Ratio data, which are given here for twelve compounds.

Test [1] has as its system Pseudomonas aeruginosa. Nature of the test: Antibacterial activity against Pseudomonas aeruginosa by disc diffusion method. In kind it is functional. (In agar diffusion tests the substance spreads into inoculated agar from a disc or well.)
Test [2] deals with Salmonella typhi. The test can be described thus: Ratio of norfloxacin MIC to compound MIC against Salmonella typhi. In kind it is functional, Salmonella enterica subsp. enterica serovar Typhi.
In test [3] the test system is Salmonella typhi. The test can be described thus: Antibacterial activity against Salmonella typhi by disc diffusion method. The test is classed as functional, Salmonella enterica subsp. enterica serovar Typhi. Particulars: Salmonella enterica.
Test [4] relates to Escherichia coli. Nature of the test: Antibacterial activity against enterotoxigenic Escherichia coli by disc diffusion method. The test is classed as functional.
The test system of test [5] is Staphylococcus aureus. Nature of the test: Antibacterial activity against Staphylococcus aureus by disc diffusion method. The test is classed as functional.

Values after ≈ are worked out from the molar mass of the structure shown.

Consider `CCn1cc(C(=O)NNS(=O)(=O)c2ccc(C)cc2)c(=O)c2cc(F)ccc21`, for which the MIC in test [1], in test [3], in test [4] and in test [5] was 0.0625 µg/mL (≈ 0.155 µM) each time. Also, the Ratio in test [2] is on record as 4.
As to `CCn1cc(C(=O)NN)c(=O)c2cc(F)ccc21`, the minimal inhibitory concentration (MIC) amounted to 0.0625 µg/mL (≈ 0.251 µM) in test [1], 0.0625 µg/mL (≈ 0.251 µM) in test [3], 0.125 µg/mL (≈ 0.502 µM) in test [4] and 0.0625 µg/mL (≈ 0.251 µM) in test [5]. Moreover, the Ratio in test [2] is listed as 4.
With `O=C(O)c1cn(C2CC2)c2cc(N3CCNCC3)c(F)cc2c1=O` [CIPROFLOXACIN], the MIC in test [1], in test [3], in test [4] and in test [5] was 0.0625 µg/mL (≈ 0.189 µM) throughout.
`CCn1cc(C(=O)NNS(=O)(=O)c2ccc(C)cc2)c(=O)c2ccccc21`: the minimal inhibitory concentration (MIC) was 0.0625 µg/mL (≈ 0.162 µM) in test [1], 0.0625 µg/mL (≈ 0.162 µM) in test [3], 0.125 µg/mL (≈ 0.324 µM) in test [4] and 0.0625 µg/mL (≈ 0.162 µM) in test [5]. Also, in test [2], the Ratio came to 4.
Take `CCn1cc(C(=O)NN)c(=O)c2cc(F)c(Cl)cc21`: the minimum inhibitory concentration (MIC) in test [1], in test [3], in test [4] and in test [5] was 0.0625 µg/mL (≈ 0.22 µM) in each case. In addition, the Ratio in test [2] worked out at 4.
As to `CCn1cc(C(=O)NN)c(=O)c2ccccc21`, the MIC in test [1], in test [3], in test [4] and in test [5] was 0.0625 µg/mL (≈ 0.27 µM) each time. The Ratio in test [2] stood at 4.
In the case of `CCn1cc(C(=O)NNS(=O)(=O)c2ccc(C)cc2)c(=O)c2cc(F)c(Cl)cc21`, the MIC in test [1], in test [3], in test [4] and in test [5] was 0.0625 µg/mL (≈ 0.143 µM) throughout. Besides, the Ratio in test [2] is on record as 4.
For the compound `CCn1cc(C(=O)NNS(=O)(=O)c2ccc(C)cc2)c(=O)c2ccc(Cl)cc21`, the minimal inhibitory concentration (MIC) in test [1] came out at 0.0625 µg/mL (≈ 0.149 µM); in test [3], 0.125 µg/mL (≈ 0.298 µM); in test [4], 0.0625 µg/mL (≈ 0.149 µM); in test [5], 0.0625 µg/mL (≈ 0.149 µM). Moreover, the Ratio in test [2] is listed as 2.
`CCn1cc(C(=O)NN)c(=O)c2cc(Cl)ccc21`: the minimal inhibitory concentration (MIC) in test [1] worked out at 0.0625 µg/mL (≈ 0.235 µM); in test [3] it was 0.0625 µg/mL (≈ 0.235 µM); in test [4], 0.25 µg/mL (≈ 0.941 µM); in test [5], 0.0625 µg/mL (≈ 0.235 µM). In addition, in test [2], the Ratio amounted to 4.
`CCn1cc(C(=O)NNS(=O)(=O)c2ccc(C)cc2)c(=O)c2cc(Cl)ccc21`: the MIC in test [1], in test [3], in test [4] and in test [5] was 0.0625 µg/mL (≈ 0.149 µM) each time. Besides, in test [2], the Ratio is 4.
`CCn1cc(C(=O)NN)c(=O)c2ccc(Cl)cc21`: the MIC in test [1], in test [3], in test [4] and in test [5] was 0.0625 µg/mL (≈ 0.235 µM) each time. Also, in test [2], the Ratio is 4.
On to `CCn1cc(C(=O)O)c(=O)c2cc(F)c(N3CCNCC3)cc21` [NORFLOXACIN], for which the minimal inhibitory concentration (MIC) worked out at 0.0625 µg/mL (≈ 0.196 µM) in test [1], 0.25 µg/mL (≈ 0.783 µM) in test [3], 0.0625 µg/mL (≈ 0.196 µM) in test [4] and 0.0625 µg/mL (≈ 0.196 µM) in test [5].

For orientation: MIC means the lowest concentration found to suppress growth. Higher therefore signals a less susceptible organism.
